Tests used:
RET = target: T1, RET (Homo sapiens, UniProt P07949); experiment: Biochemical kinase assay (Reaction Biology); conditions: 10 μM ATP
T1 construct: purchased Reaction Biology Corporation (contract assay)
Procedure: (§2) Specific kinase/substrate pairs along with required cofactors were prepared in reaction buffer; 20 mM Hepes pH 7.5, 10 mM MgCl2, 1 mM EGTA, 0.02% Brij35, 0.02 mg/ml BSA, 0.1 mM Na3VO4, 2 mM DTT, 1% DMSO (for specific details of individual kinase reaction components see Supplementary Table 2). Compounds were delivered into the reaction, followed ˜20 minutes later by addition of a mixture of ATP (Sigma, St. Louis Mo.) and ^33P ATP (Perkin Elmer, Waltham Mass.) to a final concentration of 10 μM. Reactions were carried out at room temperature for 120 min, followed by spotting of the reactions onto P81 ion exchange filter paper (Whatman Inc., Piscataway, N.J.). […] IC50 values and curve fits were obtained using Prism (GraphPad Software).

[1] = system: Ba/F3 EML4-ALK G1202R cell line; experiment: Cell proliferation assay (CellTiter-Glo); assay type: cell-based; conditions: Mus musculus, 72 hours
[2] = system: Ba/F3 TPR-ALK L1196M cell line; experiment: Cell proliferation assay at Advanced Cellular Dynamics (CellTiter-Glo); assay type: cell-based; conditions: Mus musculus, BaF3, 48 hours
GRK7 = target: T2, GRK7 (Homo sapiens, UniProt Q8WTQ7); experiment: Biochemical kinase assay (Reaction Biology); conditions: 10 μM ATP
T2 construct: purchased Reaction Biology Corporation (contract assay)
T2 sequence (Q8WTQ7 whole entry): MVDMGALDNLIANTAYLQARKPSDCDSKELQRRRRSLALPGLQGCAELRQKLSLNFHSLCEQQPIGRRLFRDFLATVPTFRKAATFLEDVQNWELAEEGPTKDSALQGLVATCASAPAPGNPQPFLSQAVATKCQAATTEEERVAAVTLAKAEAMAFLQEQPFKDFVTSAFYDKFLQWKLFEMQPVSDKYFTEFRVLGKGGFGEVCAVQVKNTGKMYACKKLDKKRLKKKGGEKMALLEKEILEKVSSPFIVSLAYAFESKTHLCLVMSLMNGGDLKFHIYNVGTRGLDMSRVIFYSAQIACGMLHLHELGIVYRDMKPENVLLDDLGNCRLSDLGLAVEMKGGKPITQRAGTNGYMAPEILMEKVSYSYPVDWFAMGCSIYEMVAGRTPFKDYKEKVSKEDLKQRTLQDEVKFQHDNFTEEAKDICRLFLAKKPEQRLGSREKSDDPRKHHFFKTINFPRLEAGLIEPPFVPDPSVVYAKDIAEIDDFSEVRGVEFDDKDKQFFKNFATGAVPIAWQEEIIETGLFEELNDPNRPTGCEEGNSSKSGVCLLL
Procedure: as §2

AKT = experiment: Immunoblotting downstream signaling, Karpas-299 cells; assay type: cell-based; conditions: Homo sapiens, read-out: downstream AKT phosphorylation IC50
Procedure: (§1) NSCLC cell line H2228 (harboring endogenous EML4-ALK fusion gene), HCC78 cells (harboring endogenous SLC34A2-ROS1 fusion gene), Karpas-299 cells (harboring endogenous NPM-ALK fusion gene) or SET-2 (harboring endogenous JAK2V617F activating mutation) were cultured in RPMI medium, and KM12 (harboring endogenous TPM3-TRKA fusion gene) cell line was cultured in DMEM medium, both supplemented with 10% fetal bovine serum and 100 U/mL of penicillin/streptomycin. Ba/F3 and NIH3T3 cells stably expressing ALK or ROS1 (WT or mutant) were culture as mentioned above. […] Protein lysates (approximately 20 μg) was resolved on 4-12% Bolt Bis-Tris precasted gels with MES running buffer (Life Technologies), transferred to nitrocellulose membranes using Trans-Blot Turbo Transfer System (Bio-Rad) and detected with antibodies targeting phosphorylated ALK Y1604 (Cell Signaling Technology), total ALK (Cell Signaling Technology), phosphorylated ROS1 and total ROS1 (Cell Signaling Technology), phosphorylated TRK A/B (Cell Signaling Technology), total TRKA antibody (Santa Cruz Biotechnology), phosphorylated STAT3 and STAT5, total STAT3 and STAT5 (Cell Signaling Technology), phosphorylated AKT (Cell Signaling Technology), total AKT (Cell Signaling Technology), phosphorylated ERK (Cell Signaling Technology), total ERK (Cell Signaling Technology) and Tubulin (Sigma). […]

STAT3 = experiment: as above; assay type: cell-based; conditions: Homo sapiens, read-out: downstream STAT3 phosphorylation IC50
Procedure: as §1

EPHA8 = target: T3, EPHA8 (Homo sapiens, UniProt P29322); experiment: Biochemical kinase assay (Reaction Biology); conditions: 10 μM ATP
T3 construct: purchased Reaction Biology Corporation (contract assay)
Procedure: as §2

TYK2 = target: T4, TYK2 (Homo sapiens, UniProt P29597); experiment: Biochemical kinase assay (Reaction Biology); conditions: 10 μM ATP
T4 construct: purchased Reaction Biology Corporation (contract assay)
Procedure: as §2

JAK3 = target: T5, JAK3 (Homo sapiens, UniProt P52333); experiment: Biochemical kinase assay (Reaction Biology); conditions: 10 μM ATP
T5 construct: purchased Reaction Biology Corporation (contract assay)
Procedure: as §2

FGR = target: T6, FGR (Homo sapiens, UniProt P09769); experiment: Biochemical kinase assay (Reaction Biology); conditions: 10 μM ATP
T6 construct: purchased Reaction Biology Corporation
Procedure: as §2

LTK = target: T7, LTK (Homo sapiens, UniProt P29376); experiment: Biochemical kinase assay (Reaction Biology); conditions: 10 μM ATP
T7 construct: purchased Reaction Biology Corporation (contract assay)
T7 sequence (P29376 17-864): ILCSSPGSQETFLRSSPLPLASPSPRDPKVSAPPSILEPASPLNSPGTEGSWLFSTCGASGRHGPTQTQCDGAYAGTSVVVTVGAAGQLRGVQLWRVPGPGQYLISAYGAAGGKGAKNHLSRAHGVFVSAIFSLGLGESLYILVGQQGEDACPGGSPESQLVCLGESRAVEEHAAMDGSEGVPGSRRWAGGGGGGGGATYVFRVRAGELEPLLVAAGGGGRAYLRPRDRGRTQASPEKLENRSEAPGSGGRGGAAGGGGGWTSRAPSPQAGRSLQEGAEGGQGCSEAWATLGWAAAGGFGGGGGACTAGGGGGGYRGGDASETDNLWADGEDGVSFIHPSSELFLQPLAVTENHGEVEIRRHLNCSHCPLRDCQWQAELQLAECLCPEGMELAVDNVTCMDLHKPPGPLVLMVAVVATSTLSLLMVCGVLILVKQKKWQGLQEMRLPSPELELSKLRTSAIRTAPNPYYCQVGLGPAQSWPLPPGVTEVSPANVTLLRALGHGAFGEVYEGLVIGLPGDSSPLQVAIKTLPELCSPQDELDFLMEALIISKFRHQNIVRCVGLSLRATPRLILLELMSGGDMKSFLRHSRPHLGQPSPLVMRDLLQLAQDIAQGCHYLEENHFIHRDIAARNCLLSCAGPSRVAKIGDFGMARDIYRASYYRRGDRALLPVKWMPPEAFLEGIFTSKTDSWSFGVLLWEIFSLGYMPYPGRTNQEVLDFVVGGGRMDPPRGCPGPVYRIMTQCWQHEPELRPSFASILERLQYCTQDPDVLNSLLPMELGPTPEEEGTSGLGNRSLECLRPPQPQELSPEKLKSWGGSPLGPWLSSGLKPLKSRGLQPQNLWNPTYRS
Procedure: as §2

YES = target: T8, YES (Homo sapiens, UniProt P07947); experiment: Biochemical kinase assay (Reaction Biology); conditions: 10 μM ATP
T8 construct: purchased Reaction Biology Corporation
T8 sequence (P07947 whole entry): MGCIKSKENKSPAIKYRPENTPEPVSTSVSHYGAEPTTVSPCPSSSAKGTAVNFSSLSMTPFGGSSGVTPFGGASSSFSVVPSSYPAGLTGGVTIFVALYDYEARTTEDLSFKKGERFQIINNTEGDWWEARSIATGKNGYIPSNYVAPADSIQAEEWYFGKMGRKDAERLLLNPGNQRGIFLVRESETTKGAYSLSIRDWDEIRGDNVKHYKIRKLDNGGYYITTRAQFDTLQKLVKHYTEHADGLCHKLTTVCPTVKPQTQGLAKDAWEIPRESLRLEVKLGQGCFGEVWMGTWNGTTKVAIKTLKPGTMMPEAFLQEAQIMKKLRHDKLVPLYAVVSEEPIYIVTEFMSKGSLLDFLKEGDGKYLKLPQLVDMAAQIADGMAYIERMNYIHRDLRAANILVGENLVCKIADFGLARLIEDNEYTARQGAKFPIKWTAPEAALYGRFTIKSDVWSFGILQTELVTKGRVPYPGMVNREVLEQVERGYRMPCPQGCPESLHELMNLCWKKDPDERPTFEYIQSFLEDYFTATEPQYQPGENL
Procedure: as §2

[3] = system: Ba/F3 EML4-ALK C1156Y cell line; experiment: Cell proliferation assay (CellTiter-Glo); assay type: cell-based; conditions: Mus musculus, 72 hours
SNARK = target: T9, SNARK (Homo sapiens, UniProt Q9H093); experiment: Biochemical kinase assay (Reaction Biology); conditions: 10 μM ATP
T9 construct: purchased Reaction Biology Corporation
T9 sequence (Q9H093 whole entry): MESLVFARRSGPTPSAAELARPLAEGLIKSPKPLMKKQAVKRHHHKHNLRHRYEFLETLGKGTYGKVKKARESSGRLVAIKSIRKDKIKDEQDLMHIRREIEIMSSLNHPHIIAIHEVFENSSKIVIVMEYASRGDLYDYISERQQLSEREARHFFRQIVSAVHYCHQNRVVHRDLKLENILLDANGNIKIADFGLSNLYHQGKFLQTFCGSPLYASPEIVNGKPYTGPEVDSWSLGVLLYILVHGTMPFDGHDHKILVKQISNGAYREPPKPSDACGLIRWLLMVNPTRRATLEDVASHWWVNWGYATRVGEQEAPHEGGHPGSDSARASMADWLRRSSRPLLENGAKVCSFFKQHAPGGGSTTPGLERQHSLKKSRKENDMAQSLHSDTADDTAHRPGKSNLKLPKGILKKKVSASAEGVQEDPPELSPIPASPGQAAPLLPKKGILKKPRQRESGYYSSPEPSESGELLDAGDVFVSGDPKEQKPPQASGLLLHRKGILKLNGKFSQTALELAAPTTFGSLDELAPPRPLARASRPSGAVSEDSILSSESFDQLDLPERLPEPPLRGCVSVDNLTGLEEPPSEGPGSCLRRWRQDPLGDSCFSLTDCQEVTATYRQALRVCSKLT
Procedure: as §2

FYN = target: T10, FYN (Homo sapiens, UniProt P06241); experiment: Biochemical kinase assay (Reaction Biology); conditions: 10 μM ATP
T10 construct: purchased Reaction Biology Corporation
T10 sequence (P06241 whole entry): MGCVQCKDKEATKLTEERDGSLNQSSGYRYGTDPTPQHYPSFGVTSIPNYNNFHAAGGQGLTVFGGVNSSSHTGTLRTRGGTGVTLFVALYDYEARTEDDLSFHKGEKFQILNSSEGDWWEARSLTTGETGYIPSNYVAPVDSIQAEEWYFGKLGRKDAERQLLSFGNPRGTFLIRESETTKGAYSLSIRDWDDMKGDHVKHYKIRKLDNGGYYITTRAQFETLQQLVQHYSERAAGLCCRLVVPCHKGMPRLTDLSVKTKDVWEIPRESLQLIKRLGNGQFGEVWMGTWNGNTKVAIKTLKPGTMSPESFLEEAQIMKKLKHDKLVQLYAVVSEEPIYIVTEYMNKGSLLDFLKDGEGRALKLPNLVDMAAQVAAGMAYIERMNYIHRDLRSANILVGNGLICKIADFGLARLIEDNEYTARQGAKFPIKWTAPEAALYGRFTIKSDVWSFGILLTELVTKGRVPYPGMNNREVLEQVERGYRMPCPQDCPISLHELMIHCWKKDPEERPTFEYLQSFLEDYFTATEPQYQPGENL
Procedure: as §2

SET-2 cell line = experiment: Cell proliferation assay (CellTiter-Glo); assay type: cell-based; conditions: Homo sapiens, 72 hours, JAK2 V617F mutation
Procedure: Two thousand cells per well were seeded in 384 well white plate for 24 hrs, and then treated with compounds for 72 hours (37° C., 5% CO2). Cell proliferation was measured using CellTiter-Glo luciferase-based ATP detection assay (Promega) following the manufactures's protocol. IC50 determinations were performed using GraphPad Prism software (GraphPad, Inc., San Diego, Calif.).

MARK3 = target: T11, MARK3 (Homo sapiens, UniProt P27448); experiment: Biochemical kinase assay (Reaction Biology); conditions: 10 μM ATP
T11 construct: purchased Reaction Biology Corporation (contract assay)
T11 sequence (P27448 whole entry): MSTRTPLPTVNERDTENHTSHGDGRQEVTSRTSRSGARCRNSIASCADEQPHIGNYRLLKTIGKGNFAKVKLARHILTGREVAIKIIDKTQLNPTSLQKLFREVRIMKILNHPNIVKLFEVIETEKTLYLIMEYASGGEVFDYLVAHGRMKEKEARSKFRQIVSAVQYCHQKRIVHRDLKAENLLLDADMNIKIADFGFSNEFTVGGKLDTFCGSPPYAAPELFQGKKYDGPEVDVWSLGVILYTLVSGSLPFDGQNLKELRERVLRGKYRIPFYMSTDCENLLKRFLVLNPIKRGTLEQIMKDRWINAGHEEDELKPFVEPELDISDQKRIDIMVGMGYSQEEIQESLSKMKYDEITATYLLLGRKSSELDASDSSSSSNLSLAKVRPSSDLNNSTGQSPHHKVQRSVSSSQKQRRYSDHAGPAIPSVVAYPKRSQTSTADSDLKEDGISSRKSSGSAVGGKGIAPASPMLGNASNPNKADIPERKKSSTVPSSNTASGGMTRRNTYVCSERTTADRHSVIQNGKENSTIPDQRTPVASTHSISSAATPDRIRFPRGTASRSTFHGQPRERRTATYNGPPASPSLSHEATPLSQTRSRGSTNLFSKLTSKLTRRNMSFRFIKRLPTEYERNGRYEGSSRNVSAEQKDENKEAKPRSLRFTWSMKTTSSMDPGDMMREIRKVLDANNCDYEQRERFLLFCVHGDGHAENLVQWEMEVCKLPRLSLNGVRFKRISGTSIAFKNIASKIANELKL
Procedure: as §2

[4] = system: Ba/F3 TEL-TRKC (ETV6-TRKC) G623R cell line; experiment: Cell proliferation assay (CellTiter-Glo); assay type: cell-based; conditions: Mus musculus, BaF3; 72 hours

T1 sequence (P07949 29-1114): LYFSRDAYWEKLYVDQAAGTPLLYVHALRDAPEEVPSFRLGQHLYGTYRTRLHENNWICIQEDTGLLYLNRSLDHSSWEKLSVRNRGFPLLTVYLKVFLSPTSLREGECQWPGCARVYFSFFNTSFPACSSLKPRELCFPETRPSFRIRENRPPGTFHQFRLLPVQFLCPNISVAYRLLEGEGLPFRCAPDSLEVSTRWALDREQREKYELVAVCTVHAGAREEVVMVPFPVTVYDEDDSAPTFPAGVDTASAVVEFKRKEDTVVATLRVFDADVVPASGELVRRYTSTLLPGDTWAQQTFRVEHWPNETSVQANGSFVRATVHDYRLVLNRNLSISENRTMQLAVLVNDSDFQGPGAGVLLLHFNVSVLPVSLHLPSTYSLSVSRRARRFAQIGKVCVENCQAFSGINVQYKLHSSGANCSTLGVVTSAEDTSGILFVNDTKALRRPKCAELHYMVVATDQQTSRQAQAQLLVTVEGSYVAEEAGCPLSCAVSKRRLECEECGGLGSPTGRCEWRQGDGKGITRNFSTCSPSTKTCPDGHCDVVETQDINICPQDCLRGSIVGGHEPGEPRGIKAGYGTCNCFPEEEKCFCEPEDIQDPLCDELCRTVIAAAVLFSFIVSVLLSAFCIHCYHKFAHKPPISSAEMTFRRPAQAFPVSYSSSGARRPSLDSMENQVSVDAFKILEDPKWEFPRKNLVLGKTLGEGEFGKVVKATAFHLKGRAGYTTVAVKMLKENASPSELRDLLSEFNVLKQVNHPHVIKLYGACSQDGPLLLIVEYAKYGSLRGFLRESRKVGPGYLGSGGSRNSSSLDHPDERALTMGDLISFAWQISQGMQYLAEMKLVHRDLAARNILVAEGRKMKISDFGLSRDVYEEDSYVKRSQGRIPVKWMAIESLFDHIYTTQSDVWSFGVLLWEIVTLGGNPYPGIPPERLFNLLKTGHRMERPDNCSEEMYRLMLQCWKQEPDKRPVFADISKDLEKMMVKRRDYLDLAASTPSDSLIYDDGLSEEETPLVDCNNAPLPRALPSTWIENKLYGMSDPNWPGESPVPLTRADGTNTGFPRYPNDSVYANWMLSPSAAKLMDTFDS

Work on `C[C@H]1CNC(=O)c2cnn3ccc(nc23)N[C@H](C)c2cc(F)ccc2O1` [Compound 1, (7S,13R)-11-fluoro-7,13-dimethyl-6,7,13,14-tetrahydro-1,15-ethenopyrazolo[4,3-f][1,4,8,10]benzoxatriazacyclotridecin-4(5H)-one] yielded an IC50 (RET) of 0.0471 µM, an IC50 [1] of 0.0205 µM and an IC50 [2] of 0.0134 µM. It also gave an IC50 (GRK7) of 0.0352 µM, an IC50 (AKT) of 0.001 to 0.003 µM and an IC50 (STAT3) of 0.001 to 0.003 µM. It also gave an IC50 (EPHA8) of 0.0502 µM, an IC50 (TYK2) of 0.0216 µM and an IC50 (JAK3) of 0.05 µM. It also gave an IC50 (FGR) of 0.00305 µM, an IC50 (LTK) of 0.0218 µM and an IC50 (YES) of 0.00215 µM. The IC50 [3] was 0.098 µM, the IC50 (SNARK) was 0.013 µM and the IC50 (FYN) was 0.00105 µM. It also gave an IC50 (SET-2 cell line) of 0.169 µM, an IC50 (MARK3) of 0.512 µM and an IC50 [4] of 0.003 µM.

— patent US11452725B2, “Chiral diaryl macrocycles and uses thereof” (TURNING POINT THERAPEUTICS, INC., priority 2015, dated 2022)
